Results on 2 molecules are retold here after patent publication US12377069B2, “Compounds, compositions, methods of using, and methods for preparing compounds” (UNIVERSITY OF LOUISVILLE RESEARCH FOUNDATION, INC., priority 2018, dated 2025).

For one series, the system named is HT29 cells. The experiment in a line: AhR/Cyp1A1 siRNA knockdown and Cyp1A1 CRISPR/Cas9 deletion. It is filed as cell-based, human. As to conditions: 24 h; for Cldn4 or NQO1 in Cyp1A1 deleted cells: CRISPR/Cas9, 50 μM; for Cldn4 induction in AhR or Cyp1A1 knockdown cells: siRNA, 50 μM. The method, then:
Small interfering RNA (siRNA) mediated knockdown experiment: The AhR siRNA (SR300136) and Cyp1A1 siRNA (SR301093) was purchased from Origene. For knockdown experiments, HT29 cells (0.5×10^6 cells/well) were plated in 6 well plate and grown for 24 hr. The AhR, Cyp1A1 and control-siRNA was transfected into HT29 cells using Lipofectamine® RNAiMAX reagent (ThermoFisher Scientific) as per instruction given. After 24 hr of transfections, cell were induced with vehicle (0.01% DMSO), UroA (50 μM) and UAS03 (50 μM) for 24 hr. After treatment with inducers, cells were lysed using RIPA buffer and total protein was used to analyse the expression of AhR, Cyp1A1 and cldn4 by western blot.
Cyp1A1 deletion by CRISPR/Cas9 method: HT29 cells (1.5×10^5) were plated in 6-well in antibiotic free standard growth medium 24 h prior to transfection. At 60% confluency cells, cell were co-transfected with 2 μg each of CRISPR/Cas9 KO Plasmid (sc-400511-KO-2; Santa cruz) and HDR Plasmid (sc-400511-HDR-2; Santa cruz) using UltraCruz® Transfection Reagent (sc-395739; Santa Cruz). Medium was replaced with selective medium (containing 4 μg/mL puromycin) 96 hr post transfection. Transfection was confirmed with fluorescence microscopy and western blot (CYP1A1). The double positive cells for GFP and RFP were sorted using MoFlo XDP sorting instrument (Beckman Coulter). The deletion of Cyp1A1 in these sorted was confirmed by Western blots. These cells were then plated in 6-well plate for in standard medium for evaluating the effect of UroA/UAS03 on Cldn4 expression. After 24 hr of UroA/UAS03 treatment cells were harvested for protein and Cldn4 expression was investigated along with normal HT29 cells.

The next series concerns BMDM. Briefly: Nrf2-dependent pathways in macrophages. To be noted: 50 μM. It is filed as cell-based, mouse. The method, then:
The data is separately presented for each time point (No TNBS− Solid black line; Veh+TNBS− Solid red line; UroA+TNBS− Solid blue line; UAS03+TNBS− Solid purple line). The data is separately presented for each time point. (No TNBS− Solid black line; Veh+TNBS− Solid red line; UroA+TNBS− Solid blue line; UAS03+TNBS− Solid purple line). (C-G) UroA/UAS03 activate Nrf2-dependent pathways in BMDM. (C) Wild type BMDM were isolated and cultured for 7 days. BMDM were treated with Veh (0.01% DMSO) or UroA or UAS03 (50 μM) for 6 h and total RNA was isolated. Nrf2 levels were measured using SyBR green Real Time PCR method. (D) Veh or UroA or UAS03 treated BMDM cell lysates were immunoblotted for Nrf2. (E) The nuclear and cytosolic fractions of BMDMs were immnunobloted for Nr2. Lamin B and β-actin were used as normalizing proteins. […] The expression of Nrf2 was determined by immunofluorescence staining using anti-Nrf2 followed by secondary antibody tagged with Alexa-488 dye and DAPI was used to stain nucleus. The fluorescence images were captured using Nikon A1R confocal microscope at 60× magnification and green fluorescence (n=>15 cells) was measured using Nikon elements software. […] NF-κB activation was evaluated by EMSA assays. […] The fold change over basal was calculated using its own control. […]

Series [1] deals with Human Umbilical Vein Endothelial Cells (HUVECs). Briefly: HUVEC CDH5 expression and in vitro permeability. It is filed as cell-based.
The next series has as its system C57BL/6 mice. Briefly: DSS-induced chronic colitis. Type of series: in vivo, mouse. To be noted: 4 cycles of 2% DSS; for colon weight/length ratio / expression of Cldn4 in colons / inflammation (serum IL-6, IL-10, TNF-α, colonic tissue MPO levels) / shortening of colons: 20 mg/kg/day; for DSS-induced chronic colitis: 20 mg/kg/day on 4th and 6th day of each cycle.

Regarding `Oc1ccc2c(c1)COc1cc(O)ccc1-2` [UAS03, 6H-benzo[c]chromene-3,8-diol], in the series with HT29 cells, the “Cldn4 or NQO1 in Cyp1A1 deleted cells” value is “did not appear to upregulate” and the “Cldn4 induction in AhR or Cyp1A1 knockdown cells” value was “does not appear to induce Cldn4”. In addition, in the series with BMDM, the “Nrf2 expression, nuclear translocation and HO1 in macrophages” value was “upregulated Nrf2 expression and induced its nuclear translocation”. Also, the “expression of CDH5 (VE-Cadherin)” value in series [1] is “increased the expression of CDH5”. In addition, in the series on C57BL/6 mice, the colon weight/length ratio entry is reported as “increased colon weight/length ratio”; the “expression of Cldn4 in colons” value is on record as “enhanced the expression of Cldn4”; the “inflammation (serum IL-6, IL-10, TNF-α, colonic tissue MPO levels)” value is listed as “reduced inflammation”; the shortening of colons result is “reduced shortening of colons”. For the same molecule, in the series with C57BL/6 mice, the DSS-induced chronic colitis entry is “protected from DSS-induced colitis”.

Consider `O=c1oc2cc(O)ccc2c2ccc(O)cc12` [UroA, 3,8-dihydroxy-6H-dibenzo[b,d]pyran-6-one], for which, in the series with HT29 cells, the “Cldn4 or NQO1 in Cyp1A1 deleted cells” value was “did not appear to upregulate” and the “Cldn4 induction in AhR or Cyp1A1 knockdown cells” value was “does not appear to induce Cldn4”. The “Nrf2 expression, nuclear translocation and HO1 in macrophages” value with BMDM is “upregulated Nrf2 expression and induced its nuclear translocation”. Moreover, the “expression of CDH5 (VE-Cadherin)” value in series [1] is on record as “increased the expression of CDH5”. Besides, in the series on C57BL/6 mice, the colon weight/length ratio result is “increased colon weight/length ratio”; the “expression of Cldn4 in colons” value is “enhanced the expression of Cldn4”; the “inflammation (serum IL-6, IL-10, TNF-α, colonic tissue MPO levels)” value was “reduced inflammation”; the shortening of colons entry is reported as “reduced shortening of colons”. Besides, in the series on C57BL/6 mice, the DSS-induced chronic colitis result is “protected from DSS-induced colitis”.
